Values of other authors as cited in paper PMC10238757 (Pharmacology Research & Perspectives, 2023).

Assays:
[1] = at higher doses; cited from earlier work
HIV-1 = details: cited from earlier work

SMILES | absorption behaviour [1] | potency in vitro (HIV-1)
C=C(C)[C@@H]1CC[C@]2(NCCN3CCS(=O)(=O)CC3)CC[C@]3(C)[C@H](CC[C@@H]4[C@@]5(C)CC=C(c6ccc(C(=O)O)cc6)C(C)(C)[C@@H]5CC[C@]43C)[C@@H]12 [GSK3532795] | plateaus in absorption | 
C=C(C)[C@@H]1CC[C@]2(NCCN3CCS(=O)(=O)CC3)CC[C@]3(C)[C@H](CC[C@@H]4[C@@]5(C)CC=C(C6=CC[C@@](CF)(C(=O)O)CC6)C(C)(C)[C@@H]5CC[C@]43C)[C@@H]12 [GSK3640254, reference compound] | plateaus in absorption | low nanomolar
